Assay results reported in US4806532A, “Inhibition of epithelial phosphate transport” (Mayo Foundation for Medical Education and Research, priority 1985, dated 1989).
Several values for one entry are separate records, joined by “and”; a condition that tells them apart may be missing. Equal entries are not always repeated. Structures can show the parent of a compound that is named as a salt.

Columns and labels:
Na-Pi cotransporter [1] = molecular target: T1, Na-Pi cotransporter (Mus musculus, UniProt Q60825); test: Na+-gradient-dependent 32Pi uptake by renal BBMV, mouse; format: biochemical
T1 construct: were prepared from renal cortices of mongrel dogs, albino mice and New Zealand albino rabbits; from tissue; host or cells: albino mouse renal cortex, brush border membrane vesicles
T1 sequence (Q60825 1-637): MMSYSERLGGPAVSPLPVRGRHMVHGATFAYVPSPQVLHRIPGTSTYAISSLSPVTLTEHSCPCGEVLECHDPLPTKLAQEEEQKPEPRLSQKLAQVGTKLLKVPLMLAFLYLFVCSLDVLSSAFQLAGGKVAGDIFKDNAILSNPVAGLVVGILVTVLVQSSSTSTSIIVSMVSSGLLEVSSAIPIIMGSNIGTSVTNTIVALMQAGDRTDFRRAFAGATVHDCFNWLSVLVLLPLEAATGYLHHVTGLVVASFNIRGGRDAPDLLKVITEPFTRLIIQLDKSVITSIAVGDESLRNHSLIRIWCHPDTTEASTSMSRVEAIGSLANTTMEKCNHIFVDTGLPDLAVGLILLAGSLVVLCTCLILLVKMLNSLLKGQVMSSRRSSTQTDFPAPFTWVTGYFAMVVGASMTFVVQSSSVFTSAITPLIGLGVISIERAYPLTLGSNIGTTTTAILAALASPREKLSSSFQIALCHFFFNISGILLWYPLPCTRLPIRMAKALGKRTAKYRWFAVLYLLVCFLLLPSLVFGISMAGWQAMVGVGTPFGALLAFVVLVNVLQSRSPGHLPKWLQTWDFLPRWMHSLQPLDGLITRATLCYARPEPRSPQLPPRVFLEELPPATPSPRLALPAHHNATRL
Experimental: (§1) The brush border membrane vesicles (BBMV) were prepared from renal cortical tissue of adult male Sprague-Dawley rats of an average body weight of about 220 grams. Rats were fed ad libitum standard rat chow containing 0.7% Pi and had free access to distilled water. Rats were sacrificed under anesthesia and dissected renal cortical tissue was used for preparation of BBMV fraction by the divalent cation-precipitation procedure, employed and described in detail in J. Clin. Invest., 67, 1347 (1981) and J. Biol. Chem., 258, 5695 (1983), with the following modifications: (a) MgCl2 instead of CaCl2 was added to crude homogenate (final concentration 10 mM MgCl2) to precipitate membranes other than BBMV; (b) in the final step, BBMV were washed and equilibrated in a medium of pH=7.5, instead of pH=8.5. The enrichment and specific activities of typical BBM enzymes alkaline phosphatase (APases), γ-glutyamyl transferase (γ-GTT), leucineaminopeptidase (LAP) and maltase with use of these modifications were similar as in BBMV fractions prepared in our previous studies. As a final step in the preparative procedure, the BBMV fraction was washed and resuspended in a medium containing 300 mM mannitol and 5 mM Tris-HEPES adjusted to pH=t.5, referred to as "MTH-medium," unless specified otherwise. The analogous BBMV fractions, using the same procedure, were prepared from renal cortices of mongrel dogs, albino mice and New Zealand albino rabbits.
The BBMV uptake of ^32 Pi, D-[^3 H]-glucose, L-[^3 H]-proline and ^22 Na^+ was measured by means of a rapid filtration technique, as described in J. Clin. Invest., 67, 1347 (1981) and Am. J. Physiol., 246, F133-F139 (1984). Also, unless specified otherwise, the medium for the solute uptake assay consisted of following compounds (in final concentrations): 100 mM mannitol, 100 mM NaCl (or 100 mM KC1) and 5 mM Tris-HEPES (pH=7.5) and eitehr 0.1 mM K2 H^32 PO4, or 0.05 mM D-[^3 H]-glucose, or 0.025 mM L-[^3 H]-proline. IN the ^22 Na^+ uptake studies, the assay medium contained 100 mM ^22 NaCl (^22 NaCl about […] per tube), 100 mM mannitol and 5 mM Tris-HEPES (pH 7.5).
In most experiments, the Na^+ -gradient-dependent ^32 Pi uptake in the concentrative "uphill" phase was measured at 20 seconds period. Since Na^+ -independent Pi uptake in this time period was quantitatively minor component (<5%) of the Na^+ -gradient-dependent Pi uptake, it was not routinely subtracted.

(Na-K)ATPase = molecular target: T2, (Na-K)ATPase (Rattus norvegicus, UniProt P06685); test: Effect on BaLM enzyme (Na-K)ATPase (data not shown); format: biochemical
T2 construct: from tissue; host or cells: basolateral membrane, kidney (tissue and rat inferred)

Na-Pi cotransporter [2] = molecular target: T3, Na-Pi cotransporter (Rattus norvegicus, UniProt Q06496); test: Reversibility of TPFA inhibition: 32Pi uptake of BBMV after preincubation and washout; format: biochemical
T3 construct: from tissue; host or cells: rat renal cortex, brush border membrane vesicles
T3 sequence (Q06496 1-637): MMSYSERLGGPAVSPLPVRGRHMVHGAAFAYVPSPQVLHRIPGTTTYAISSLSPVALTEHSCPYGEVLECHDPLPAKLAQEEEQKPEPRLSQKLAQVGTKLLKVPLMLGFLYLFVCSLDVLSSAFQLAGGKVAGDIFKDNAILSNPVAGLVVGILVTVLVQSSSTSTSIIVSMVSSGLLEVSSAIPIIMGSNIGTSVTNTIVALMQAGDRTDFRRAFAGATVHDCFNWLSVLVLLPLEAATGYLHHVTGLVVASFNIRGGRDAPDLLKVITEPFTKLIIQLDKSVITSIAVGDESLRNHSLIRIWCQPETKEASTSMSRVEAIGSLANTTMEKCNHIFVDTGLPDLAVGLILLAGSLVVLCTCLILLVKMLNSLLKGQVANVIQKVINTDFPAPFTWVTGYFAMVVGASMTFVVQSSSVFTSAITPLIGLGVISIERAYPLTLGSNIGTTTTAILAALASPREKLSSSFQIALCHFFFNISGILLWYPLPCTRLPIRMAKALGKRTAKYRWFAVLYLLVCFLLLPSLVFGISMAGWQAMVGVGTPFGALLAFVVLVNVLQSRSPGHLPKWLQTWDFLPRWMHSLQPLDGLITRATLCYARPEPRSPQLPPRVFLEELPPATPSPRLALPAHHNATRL
Experimental: The reversibility of the inhibition of ^32 Pi transport across BBMV by TPFA was explored using the following protocol. […] The suspensions of BBMV were incubated for 10 min at room temperature. At the end of incubation period, incubation mixtures were diluted with 10 ml of ice-cold MTH-medium, resuspended and centrifuged at 35,000×g for 20 min. The supernatant was discarded and BBMV pellet was suspended in MTH-medium and then assayed for Na^+ -gradient-dependent ^32 Pi uptake.

[3] = tested on: D-[^3 H]-glucose uptake by BBMV; test: Na+-gradient-dependent uptake of D-[3H]-glucose by renal BBMV; format: biochemical, rat; conditions: 1 mM TPFA; mean ± SEM, n=4; control 66±15
Experimental: as §1, with “As a final step in the preparative procedure, the BBMV fraction was washed and resuspended in a medium containing 300 mM mannitol and 5 mM Tris-HEPES adjusted to pH=t.5, referred to as "MTH-medium," unless specified otherwise. The analogous BBMV fractions, using the same procedure, were prepared from renal cortices of mongrel dogs, albino mice and New Zealand albino rabbits.” left out
The BBMV uptake of ^32 Pi, D-[^3 H]-glucose, L-[^3 H]-proline and ^22 Na^+ was measured by means of a rapid filtration technique, as described in J. Clin. Invest., 67, 1347 (1981) and Am. […]

O=C(O)P(=O)(O)O [TPFA, Phosphonoformic acid, trisodium salt hexahydrate]
32Pi-uptake 120 min (Na-Pi cotransporter [1]; 1 mM TPFA, control 368 ± 7): 390 ± 74 pmoles Pi/mg protein/time
32Pi-uptake 20 sec (Na-Pi cotransporter [1]; 1 mM TPFA, control 824 ± 9): 299 ± 8 pmoles Pi/mg protein/time
32Pi-uptake 20 sec (Na-Pi cotransporter [1]; 5 mM TPFA): 97 ± 7 pmoles Pi/mg protein/time
32Pi-uptake 120 min (Na-Pi cotransporter [1]; 5 mM TPFA): 404 ± 12 pmoles Pi/mg protein/time
inhibition at 1000 µM (Na-Pi cotransporter [1]; 20 s, 1 mM TPFA, read-out: percent decrease of 20 sec 32Pi-uptake relative to control value): 63.7%
inhibition at 5000 µM (Na-Pi cotransporter [1]; 20 s, 5 mM TPFA, read-out: percent decrease of 20 sec 32Pi-uptake relative to control value): 88.2%
effect on BaLM enzyme (Na-K)ATPase ((Na-K)ATPase): without inhibitory effect
32Pi uptake 120 min, TPFA-preincubated (Na-Pi cotransporter [2]; BBMV preincubated with 5 mM TPFA 10 min, diluted 1:10, washed, Experiments 1 and 2): 326 ± 5 pmoles/mg protein and 293 ± 3 pmoles/mg protein
32Pi uptake 20 sec, TPFA-preincubated (Na-Pi cotransporter [2]; BBMV preincubated with 5 mM TPFA 10 min, diluted 1:10, washed, Experiments 1 and 2, mean ± SEM): 1240 ± 25 pmoles/mg protein and 1128 ± 38 pmoles/mg protein
rate of Na+-gradient-dependent BBMV uptake of Pi after washout of TPFA by dilution (Na-Pi cotransporter [2]; versus control BBMV not exposed to TPFA): indistinguishable from control BBMV
uptake of D-[3H]-glucose at 120 minutes [3]: 65±12 pmoles/mg protein
